Measurements: paper PMC12549899 (Nature Communications, 2025)
Numbering of substitutions follows the chain as printed. Several values for one entry are separate records, joined by “and”; a condition that tells them apart may be missing. Identical values can stand only once. Entries after “also recorded” stand apart in the source; their conditions may differ. Like-named read-outs stand apart in the source and are kept apart here.

Columns and labels:
DrOTOP1 = target: T1, DrOTOP1 (Danio rerio, UniProt Q7ZWK8); assay: Whole-cell patch-clamp, inhibition of acid-evoked currents, WT DrOTOP1 expressed in HEK-293 cells; assay type: cell-based, zebrafish (Danio rerio); details: for Inhibition of pH 5.5-induced currents, screen 2 / Inhibition of pH 5.5-induced currents, screen 1: 200 µM compound; for Inhibition of pH 5.5-induced currents, screen 2 / inhibition at 200 µM / Inhibition of pH 5.5-induced currents, screen 1: HEK-293 cells expressing DrOTOP1, Vm -80 mV, values of single cells; for inhibition at 200 µM: HEK293, pH 5.5, 200 µM compound; for Inhibition of pH 5.5-induced currents, screen 1: 200 µM
T1 construct: A previously generated codon-optimized full-length DrOTOP1[8]; (UniProt: Q7ZWK8) construct; expressed in transfected cells; host or cells: HEK-293 (CRL-1573, ATCC)
T1 sequence (Q7ZWK8 1-586): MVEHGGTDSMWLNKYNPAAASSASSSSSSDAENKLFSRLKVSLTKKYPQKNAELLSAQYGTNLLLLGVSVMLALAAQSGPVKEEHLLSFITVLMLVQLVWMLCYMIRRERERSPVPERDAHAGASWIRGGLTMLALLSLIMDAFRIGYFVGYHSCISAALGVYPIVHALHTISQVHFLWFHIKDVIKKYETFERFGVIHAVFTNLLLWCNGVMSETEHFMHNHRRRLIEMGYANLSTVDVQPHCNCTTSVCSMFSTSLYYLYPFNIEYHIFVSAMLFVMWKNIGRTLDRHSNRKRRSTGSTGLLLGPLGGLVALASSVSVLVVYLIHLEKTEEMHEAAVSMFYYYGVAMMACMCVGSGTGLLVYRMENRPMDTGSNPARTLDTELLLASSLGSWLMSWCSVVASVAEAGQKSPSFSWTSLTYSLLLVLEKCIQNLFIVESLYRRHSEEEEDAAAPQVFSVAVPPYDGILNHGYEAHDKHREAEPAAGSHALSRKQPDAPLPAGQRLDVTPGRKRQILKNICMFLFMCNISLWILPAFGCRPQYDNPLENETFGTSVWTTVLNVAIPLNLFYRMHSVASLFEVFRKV
Source text: The 50 molecules identified were individually tested by whole-cell patch-clamp electrophysiology for effects on DrOTOP1 expressed in human embryonic kidney (HEK)−293 cells. […] This approach enabled us to observe the on- and off-responses of each compound. To quantify the effect of each compound, we compared the current magnitude during compound application immediately before wash-off, to the peak inward current following its removal (Supplementary Fig. 2A).
(§1) HEK-293 cells (CRL-1573, ATCC) were cultured in DMEM (Thermofisher 11995073) containing 10% fetal bovine serum (Life Technology 16000044) and Penicillin-Streptomycin (100 I.U./mL) and (100 µg/mL), respectively. Cells were transfected with WT DrOTOP1 or mutant DrOTOP1 channels in 35 mm petri dishes, with ~ 500 ng DNA and 2 μL TransIT-LT1 transfection reagent (Mirus Bio Corporation, Cat # MIR2300) following the manufacturer’s protocol. All constructs were subcloned into a pcDNA3.1 vector that adds an N-terminal fusion tag consisting of an octahistidine tag followed by eGFP, a Gly-Thr-Gly-Thr linker and a 3C protease cleavage site ([…]) followed by WT DrOTOP1, WT mOTOP1, WT hOTOP1, or mutated DrOTOP1. Point mutations were generated via In-Fusion Cloning (Takara) using single-stranded DNA primers generated through IDT and sequence confirmed by Sanger sequencing (GeneWiz).
(§2) Whole-cell patch-clamp recording was performed as previously described[6],[22],[25]. Recordings were made with an Axopatch 200B amplifier, digitized with a Digidata 1322a 16-bit data acquisition system, acquired with pClamp 8.2 and analyzed with Clampfit 10 (Molecular Devices). Recordings were sampled at 5 kHz and filtered at 1 kHz. Patch Pipettes with resistance of […] were fabricated from borosilicate glass, and only recordings with a giga-Ohm seal were used in analysis. Membrane potential was held at −80 mV for the duration of recordings. At the beginning of recordings and between, cells were washed with Tyrode’s solution (see below). Once a giga-Ohm seal was reached, cells were lifted and placed in front of microcapillary tubes controlled by a Fast-Step perfusion system (Warner Instruments) so that extracellular solutions could be rapidly exchanged during each experiment.
Standard Tyrode’s solution consisted of 145 mM NaCl, 5 mM KCl, MgCl2, 2 mM CaCl2, 20 mM D-Glucose, and 10 mM HEPES (for pH 7.4). All other extracellular patch-clamp solutions contained 160 mM NMDG-Cl, 2 mM CaCl2, and the following buffers: 10 mM HEPES (for pH 7.4), 10 mM MES (for pH 6.5-5.5), 10 mM CHES for pH 10, and 10 mM HomoPIPES for (pH 5.0). pH adjusted with HCl. […] The pipette contained intracellular solution made up of 120 mM Cs-aspartate, 15 mM CsCl, 2 mM Mg-ATP, 5 mM EGTA, 2.4 mM CaCl2 (100 nM free Ca^2+), and 10 mM HEPES with a pH of 7.3. All extracellular solution osmolarity was adjusted to 300 mOsm and intracellular osmolarity was adjusted to 290 mOsm.
All data are presented as mean ± SEM unless otherwise noted, and each data point represents an independent replicant. Inhibition of compounds was quantified as ((I2peak-I1)/(I2peak))*100, where I1 is the current immediately before wash-off and I2peak is the maximum recovered current (Supplementary Fig. 2). Hill coefficients were determined by the following equation: Y = Bmax*X^h/(Kd^h + X^h).

DrOTOP1 G130W = target: T2, DrOTOP1 G130W (Danio rerio, UniProt Q7ZWK8, G130W); assay: Whole-cell patch-clamp, inhibition of acid-evoked currents, DrOTOP1 G130W (outer site); assay type: cell-based, zebrafish (Danio rerio); details: DrOTOP1 G130W
T2 construct: A previously generated codon-optimized full-length DrOTOP1[8]; (UniProt: Q7ZWK8) construct; expressed in transfected cells; host or cells: HEK-293 (CRL-1573, ATCC)
T2 sequence (Q7ZWK8 1-586 G130W): T1 sequence (Q7ZWK8 1-586) with G130W
Source text: To functionally test the significance of the two binding sites identified by cryo-EM, we generated point mutations of DrOTOP1 using the binding poses and conformational changes observed in DrOTOP1_C2.2 to guide our mutations. As per the binding pose that best fits our cryo-EM density, C2.2 forms the following interactions in the outer site: hydrophobic packing against many non-polar residues W126, G130, M133, L134, F271, F570, and M573, and π-stacking with W532 (Fig. 5A). In addition, C2.2 could potentially form H-bonds with E267, if the sidechain is protonated or a water bridge is present, and with H574 if it moves closer (Fig. 5A). Likewise, C2.36 presents a heterocyclic nitrogen that can potentially form a H-bond with E267, similarly, provided a protonation or water bridge is present (Fig. 5B). In addition, C2.36 forms a T-shaped π-stacking interaction with H574, whose sidechain has rotated 90 degrees (compared to DrOTOP1_apo), presumably to accommodate the interaction (Fig. 5B). Considering other inhibitors discovered from the second round of screening, many contain functional groups like the carbonyl groups of Group 1 molecules and the heterocyclic nitrogen atoms of Group 2 molecules (Supplementary Fig. 3E), that can potentially form similar H-bonds with E267 as C2.2 and C2.36, assuming the binding modes are similar. In the central site, C2.2 binds with the following interactions: hydrophobic packing with residues V201, F271, A274, V278, and A388, π-stacking with F277, and H-bonding with E384 (Fig. 5C).
Each non-aromatic residue was mutated to tryptophan, which was expected to cause steric occlusion. […] This seemed appropriate given the small number of H-bonds in these pockets, the ambiguity of how the inhibitors fit the density, and the prevalence of hydrophobic packing interactions (Fig. 5A–C).
as §1, §2
Standard Tyrode’s solution consisted of 145 mM NaCl, 5 mM KCl, MgCl2, 2 mM CaCl2, 20 mM D-Glucose, and 10 mM HEPES (for pH 7.4). All other extracellular patch-clamp solutions contained 160 mM NMDG-Cl, 2 mM CaCl2, and the following buffers: 10 mM HEPES (for pH 7.4), 10 mM MES (for pH 6.5-5.5), 10 mM CHES for pH 10, and 10 mM HomoPIPES for (pH 5.0). pH adjusted with HCl. […]

[1] = FDA 1-3 = FDA-approved drugs, read-out: Inhibition of pH 5.5-induced currents, screen 2

Oc1ccc(-c2nnc3n2Cc2ccccc2OC3)cc1 [C2.36]
Kinetics and reversibility of inhibition (DrOTOP1; WT DrOTOP1, pH 5.5 stimulus): uniquely slow off-rate; also recorded: slowly inhibited; also recorded: poorly reversible | Wash-off compared to WT (DrOTOP1 G130W): faster wash-off | Inhibition (Fig. 5N) (DrOTOP1 G130W; pH 5.5, 100 µM C2.36 according to legend of Fig. 5M, N, single cells): significantly less inhibition

Cc1nc(=NCCCc2ncc[nH]2)c2c([nH]1)COc1ccccc1C2 [C2.51]
Inhibition of pH 5.5-induced currents, screen 2 (DrOTOP1; FDA 1-3 = FDA-approved drugs, listed as 51, 200 µM): 16.6082% and 21.5548% | inhibition at 200 µM (DrOTOP1; [1]): 26.3%

Cc1csc(NC(=O)c2nc(C3CC3)n[nH]2)n1 [C38]
Inhibition of pH 5.5-induced currents, screen 1 (DrOTOP1): 0.5534% and 0.7746% | inhibition at 200 µM (DrOTOP1; read-out: Inhibition of pH 5.5-induced currents, screen 1): 0.922%

Cc1noc(-c2csc(Cc3ccccc3)n2)n1 [C39]
Inhibition of pH 5.5-induced currents, screen 1 (DrOTOP1): 1.199% and 1.966% and 0.3901%

COCc1nc(-c2nc3c([nH]2)CCCNC3=O)no1 [C42]
Inhibition of pH 5.5-induced currents, screen 1 (DrOTOP1): 1.242% and 3.465% and 1.504%

Cc1n[nH]c(CNC(=O)c2cnc3ccccc3n2)n1 [C44]
Inhibition of pH 5.5-induced currents, screen 1 (DrOTOP1): 3.035% and 1.397% and 1.665%

CC(=O)O[C@H]1Cc2ccccc2N(C(N)=O)c2ccccc21 [eslicarbazepine acetate, reference compound]
Inhibition of pH 5.5-induced currents, screen 2 (DrOTOP1; FDA 1-3 = FDA-approved drugs, listed as FDA 2, 200 µM): 4.01% and 3.687% | inhibition at 200 µM (DrOTOP1; [1]): 3.48%
